Molecules are shown by their SMILES.

Usually IC50 stands for the point on the concentration scale where inhibition reaches its midpoint.

Chain of KRas G12C (P01116 1-188 isoform P01116-2 G12C): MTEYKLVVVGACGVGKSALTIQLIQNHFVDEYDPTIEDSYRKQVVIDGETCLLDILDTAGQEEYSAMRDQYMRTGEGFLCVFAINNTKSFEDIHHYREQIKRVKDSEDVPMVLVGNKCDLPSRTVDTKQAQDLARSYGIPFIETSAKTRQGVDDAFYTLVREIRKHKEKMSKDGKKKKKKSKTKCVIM

The assay addresses KRas G12C (Homo sapiens, UniProt P01116, G12C). The assay is described as follows: Cellular inhibition of KRas G12C measured by Phospho-ERK in NCI-H358 cells. Format: cell-based. The note with it: pERK(Thr202/Tyr204) normalized with GAPDH, NCI-H358 cells, 3 hours; read-out: IC50. The essentials: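 Following 8-12 h attachment, NCI-H358 cells got serially diluted compound (0.5% DMSO) for 3 hours. Cells were then fixed, permeabilized with cold methanol, and stained for pERK(Thr202/Tyr204) and GAPDH. Ratios were converted to percent of DMSO control, with IC50 obtained by four-parameter regression.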
Regarding `C=CC(=O)N1CCN(c2nc(OCCCN3CCOCC3)nc3c2CCN(c2cc(O)ccc2SC(F)(F)F)C3)CC1` [Example 214, 1-(4-(7-(5-hydroxy-2-((trifluoromethyl)thio)phenyl)-2-(3-morpholinopropoxy)-5,6,7,8-tetrahydropyrido[3,4-d]pyrimidin-4-yl)piperazin-1-yl)prop-2-en-1-one], the IC50 is over 1 µM. Take `C=CC(=O)N1CCN(c2nc(OC[C@@H]3CCN(C)C3)nc3c2CCN(c2ccccc2C(F)(F)F)C3)CC1CC#N` (stereo partly drawn) [Example 298, 2-(1-acryloyl-4-(2-(((R)-1-methylpyrrolidin-3-yl)methoxy)-7-(2-(trifluoromethyl)phenyl)-5,6,7,8-tetrahydropyrido[3,4-d]pyrimidin-4-yl)piperazin-2-yl)acetonitrile]: the IC50 was in the range of 0.0001 to 1 µM. Next, `C=CC(=O)N1CCN(c2ncnc3c2CCN(c2cc(O)ccc2F)C3)CC1` [Example 5, 1-(4-(7-(2-fluoro-5-hydroxyphenyl)-5,6,7,8-tetrahydropyrido[3,4-d]pyrimidin-4-yl)piperazin-1-yl)prop-2-en-1-one]: over 1 µM. Next, `Cc1cccc2cccc(N3CCc4c(nc(OC[C@@H]5CCCN5C)nc4N4CCN(C(=O)/C=C/c5ccncc5)[C@@H](CC#N)C4)C3)c12` [Example 526, 2-((S)-4-(7-(8-methylnaphthalen-1-yl)-2-(((S)-1-methylpyrrolidin-2-yl)methoxy)-5,6,7,8-tetrahydropyrido[3,4-d]pyrimidin-4-yl)-1-((E)-3-(pyridin-4-yl)acryloyl)piperazin-2-yl)acetonitrile]: 0.0001 to 1 µM; `CN1CCC[C@H]1COc1nc2c(c(N3CCN(C(=O)C#CCO)[C@@H](CC#N)C3)n1)CCN(c1cccc3cccc(Cl)c13)C2` [Example 483, 2-[(2S)-4-[7-(8-chloro-1-naphthyl)-2-[[(2S)-1-methylpyrrolidin-2-yl]methoxy]-6,8-dihydro-5H-pyrido[3,4-d]pyrimidin-4-yl]-1-(4-hydroxybut-2-ynoyl)piperazin-2-yl]acetonitrile]: 0.0001 to 1 µM; `C=C(F)C(=O)N1CCN(c2nc(OC[C@@H]3CCCN3C)nc3c2CCN(c2c(C)c(C)cc4[nH]ncc24)C3)C[C@@H]1CC#N` [Example 521, 2-[(2S)-4-[7-(5,6-dimethyl-1H-indazol-4-yl)-2-[[(2S)-1-methylpyrrolidin-2-yl]methoxy]-6,8-dihydro-5H-pyrido[3,4-d]pyrimidin-4-yl]-1-(2-fluoroprop-2-enoyl)piperazin-2-yl]acetonitrile]: 0.0001 to 1 µM. `C=CC(=O)N1CCN(c2nc(OC[C@@H]3CCCN3C)nc3c2CCN(c2cnccc2C#N)C3)C[C@@H]1CC#N` [Example 305, 3-(4-((S)-4-acryloyl-3-(cyanomethyl)piperazin-1-yl)-2-(((S)-1-methylpyrrolidin-2-yl)methoxy)-5,6-dihydropyrido[3,4-d]pyrimidin-7(8H)-yl)isonicotinonitrile]: the IC50 was over 1 µM. `C=CC(=O)N1CCN(c2nc(O[C@H](C)CN3CC[C@@H](OC)C3)nc3c2CCN(c2cc(O)cc4ccccc24)C3)CC1` [Example 63, 1-(4-(7-(3-hydroxynaphthalen-1-yl)-2-(((R)-1-((R)-3-methoxypyrrolidin-1-yl)propan-2-yl)oxy)-5,6,7,8-tetrahydropyrido[3,4-d]pyrimidin-4-yl)piperazin-1-yl)prop-2-en-1-one]: the 50% inhibitory concentration (IC50) was over 1 µM. The same measure for `C=C(F)C(=O)N1CCN(c2nc(OCC3CCCC3)nc3c2CCN(c2cccc4cccc(C)c24)C3)C[C@@H]1CC#N` [Example 603, 2-[(2S)-4-[2-(cyclopentylmethoxy)-7-(8-methyl-1-naphthyl)-6,8-dihydro-5H-pyrido[3,4-d]pyrimidin-4-yl]-1-(2-fluoroprop-2-enoyl)piperazin-2-yl]acetonitrile]: over 1 µM; for `C=CC(=O)N1CCN(c2ncnc3c2CCN(c2c(C)ccc4[nH]ncc24)C3)CC1` [Example 7, 1-(4-(7-(5-methyl-1H-indazol-4-yl)-5,6,7,8-tetrahydropyrido[3,4-d]pyrimidin-4-yl)piperazin-1-yl)prop-2-en-1-one]: over 1 µM. Next, `C=CC(=O)N1CCN(c2nc(OC[C@@H]3CCCN3CC3CC3)nc3c2CCN(c2cccc4ccccc24)C3)CC1CC#N` (stereo partly drawn) [Example 396, 2-(1-acryloyl-4-(2-(((S)-1-(cyclopropylmethyl)pyrrolidin-2-yl)methoxy)-7-(naphthalen-1-yl)-5,6,7,8-tetrahydropyrido[3,4-d]pyrimidin-4-yl)piperazin-2-yl)acetonitrile]: 0.0001 to 1 µM; `C=CC(=O)N1CCN(c2nc(OC[C@@H]3CCN(C)C3)nc3c2CCN(c2cc(O)cc4ccccc24)C3)CC1` [Example 110, (R)-1-(4-(7-(3-hydroxynaphthalen-1-yl)-2-((1-methylpyrrolidin-3-yl)methoxy)-5,6,7,8-tetrahydropyrido[3,4-d]pyrimidin-4-yl)piperazin-1-yl)prop-2-en-1-one]: 0.0001 to 1 µM. The same measure for `C=CC(=O)N1CCN(c2nc(OC[C@H]3CCCN3C)nc3c2CCN(c2cc(O)cc4ccccc24)C3)C[C@@H]1CC#N` [Example 344, 2-[(2S)-4-[7-(3-hydroxy-1-naphthyl)-2-[[(2R)-1-methylpyrrolidin-2-yl]methoxy]-6,8-dihydro-5H-pyrido[3,4-d]pyrimidin-4-yl]-1-prop-2-enoyl-piperazin-2-yl]acetonitrile]: 0.0001 to 1 µM. Turning to `C=CC(=O)N1CCN(c2nc(OC[C@@H]3CCCN3C)nc3c2CCN(c2cccc(Cl)c2OC)C3)C[C@@H]1CC#N` [Example 422, 2-((S)-1-acryloyl-4-(7-(3-chloro-2-methoxyphenyl)-2-(((S)-1-methylpyrrolidin-2-yl)methoxy)-5,6,7,8-tetrahydropyrido[3,4-d]pyrimidin-4-yl)piperazin-2-yl)acetonitrile], the half-inhibitory concentration (IC50) lay in the range of 0.0001 to 1 µM.

For the compound `C=CC(=O)N1CCN(c2nc(OC[C@@H](O)CN3CCOCC3)nc3c2CCN(c2cc(O)cc4ccccc24)C3)CC1` (single isomer, unassigned) [Example 216], the IC50 is over 1 µM. Next, `C=CC(=O)N1CCN(c2nc(O[C@H](C)CN3CC[C@H](OC)C3)nc3c2CCN(c2cc(O)cc4ccccc24)C3)CC1` [Example 64, 1-(4-(7-(3-hydroxynaphthalen-1-yl)-2-(((R)-1-((S)-3-methoxypyrrolidin-1-yl)propan-2-yl)oxy)-5,6,7,8-tetrahydropyrido[3,4-d]pyrimidin-4-yl)piperazin-1-yl)prop-2-en-1-one]: 0.0001 to 1 µM; `C=CC(=O)N1CCN(c2nc(OC[C@@H]3CCN(C)C3)nc3c2CCN(c2ccccc2C(F)(F)F)C3)CC1CC#N` (stereo partly drawn) [Example 281, 2-(1-acryloyl-4-(2-(((R)-1-methylpyrrolidin-3-yl)methoxy)-7-(2-(trifluoromethyl)phenyl)-5,6,7,8-tetrahydropyrido[3,4-d]pyrimidin-4-yl)piperazin-2-yl)acetonitrile]: 0.0001 to 1 µM.

For the compound `C=CC(=O)N1CCN(c2nc(OCCCN3CCOCC3)nc3c2CCN(c2cc(O)ccc2C)C3)CC1` [Example 105, 1-(4-(7-(5-hydroxy-2-methylphenyl)-2-(3-morpholinopropoxy)-5,6,7,8-tetrahydropyrido[3,4-d]pyrimidin-4-yl)piperazin-1-yl)prop-2-en-1-one], the IC50 is over 1 µM.

Values taken from patent US10689377B2 (Mirati Therapeutics, Inc., priority 2017, dated 2020).
